Converted amounts (≈) assume the structure as drawn.
Tests used:
Format in all cases: functional
Staphylococcus aureus [1] = experiment: Antibacterial activity against Staphylococcus aureus ATCC 25923 assessed as bacterial growth inhibition measured after 18 hrs by agar dilution assay
Escherichia coli [2] = experiment: Antibacterial activity against Escherichia coli ATCC 25922 assessed as bacterial growth inhibition measured after 18 hrs by agar dilution assay
Escherichia coli [3] = experiment: Potency index, ratio of ciprofloxacin MIC to test compound MIC for antimicrobial activity against Escherichia coli assessed as bacterial growth inhibition by agar cup diffusion assay
Staphylococcus aureus [4] = experiment: Antibacterial activity against clinical isolate methicillin resistant Staphylococcus aureus assessed as bacterial growth inhibition by microdilution assay
Staphylococcus aureus [5] = experiment: Antibacterial activity against Staphylococcus aureus ATCC 25923 assessed as bacterial growth inhibition by microdilution assay
Staphylococcus aureus [6] = experiment: Antibacterial activity against Staphylococcus aureus assessed as bacterial growth inhibition by broth microdilution assay
Pseudomonas aeruginosa = experiment: Antibacterial activity against Pseudomonas aeruginosa assessed as bacterial growth inhibition by broth microdilution assay
Escherichia coli [7] = experiment: […] activity against Escherichia coli assessed as bacterial growth inhibition by broth dilution assay
Klebsiella pneumoniae = experiment: Antibacterial activity against Klebsiella pneumoniae assessed as bacterial growth inhibition by two fold microdilution assay
Escherichia coli [8] = experiment: Antibacterial activity against Escherichia coli ATCC 8739 assessed as bacterial growth inhibition by two fold microdilution assay
Staphylococcus aureus [9] = experiment: Antibacterial activity against Staphylococcus aureus ATCC 6538P assessed as bacterial growth inhibition by two fold microdilution assay
Escherichia coli [10] = experiment: Antibacterial activity against Escherichia coli assessed as bacterial growth inhibition by broth microdilution assay
Escherichia coli [11] = experiment: Antibacterial activity against Escherichia coli assessed as bacterial growth inhibition by two fold microdilution assay
Staphylococcus aureus [12] = experiment: Antibacterial activity against Staphylococcus aureus assessed as bacterial growth inhibition by two fold microdilution assay
Enterococcus faecalis = experiment: Antibacterial activity against Enterococcus faecalis assessed as bacterial growth inhibition by broth microdilution assay
Escherichia coli [13] = experiment: Antibacterial activity against fluoroquinolone Escherichia coli assessed as bacterial growth inhibition by broth microdilution assay
Staphylococcus aureus [14] = experiment: Antibacterial activity against methicillin resistant Staphylococcus aureus ATCC 33591 assessed as bacterial growth inhibition measured after 16 to 18 hrs by serial dilution method; settings: time 16-18 hrs

Compound: O=C(O)c1cn(C2CC2)c2cc(N3CCN(Cc4cn(-c5ccccc5)nn4)CC3)c(F)cc2c1=O
- MIC (Staphylococcus aureus [1]): 0.12 µg/mL (≈ 0.246 µM)
- MIC (Escherichia coli [2]): 0.12 µg/mL (≈ 0.246 µM)

Compound: CCn1cc(C(=O)O)c(=O)c2cc(F)c(N3CCN(Cc4cn(-c5ccc([N+](=O)[O-])cc5)nn4)CC3)cc21
- MIC (Staphylococcus aureus [1]): 0.12 µg/mL (≈ 0.23 µM)
- MIC (Escherichia coli [2]): 0.12 µg/mL (≈ 0.23 µM)

Compound: CCn1cc(C(=O)O)c(=O)c2cc(F)c(N3CCN(Cc4cn(-c5ccccc5)nn4)CC3)cc21
- MIC (Staphylococcus aureus [1]): 0.12 µg/mL (≈ 0.252 µM)
- MIC (Escherichia coli [2]): 0.12 µg/mL (≈ 0.252 µM)

Compound: Cc1ccc(-n2cc(CN3CCN(c4cc5c(cc4F)c(=O)c(C(=O)O)cn5C4CC4)CC3)nn2)cc1
- MIC (Staphylococcus aureus [1]): 0.12 µg/mL (≈ 0.239 µM)
- MIC (Escherichia coli [2]): 0.12 µg/mL (≈ 0.239 µM)

Compound: CCn1cc(C(=O)O)c(=O)c2cnc(N3CCN(Cc4cn(-c5ccc([N+](=O)[O-])cc5)nn4)CC3)nc21
- MIC (Staphylococcus aureus [1]): 0.12 µg/mL (≈ 0.237 µM)
- MIC (Escherichia coli [2]): 0.12 µg/mL (≈ 0.237 µM)

Compound: CCn1cc(C(=O)O)c(=O)c2cnc(N3CCN(Cc4cn(-c5ccccc5)nn4)CC3)nc21
- MIC (Staphylococcus aureus [1]): 0.12 µg/mL (≈ 0.261 µM)
- MIC (Escherichia coli [2]): 0.12 µg/mL (≈ 0.261 µM)

Compound: CCn1nnnc1SCCC(=O)N1CCN(c2cc3c(cc2F)c(=O)c(C(=O)O)cn3C2CC2)CC1
- Ratio (Escherichia coli [3]): 2

Compound: COc1cc(-n2nnnc2SCCC(=O)N2CCN(c3cc4c(cc3F)c(=O)c(C(=O)O)cn4C3CC3)CC2)cc(OC)c1OC
- Ratio (Escherichia coli [3]): 2

Compound: O=C(O)c1cn(C2CC2)c2cc(N3CCN(C(=O)CCSc4nnnn4-c4ccc(F)c(F)c4F)CC3)c(F)cc2c1=O
- Ratio (Escherichia coli [3]): 2

Compound: O=C(O)c1cn(C2CC2)c2cc(N3CCN(C(=O)CCSc4nnnn4-c4ccc(C(F)(F)F)cc4)CC3)c(F)cc2c1=O
- Ratio (Escherichia coli [3]): 2

Compound: O=C(O)c1cn(C2CC2)c2cc(N3CCN(C(=O)CCSc4nnnn4-c4ccccc4)CC3)c(F)cc2c1=O
- Ratio (Escherichia coli [3]): 2

Compound: O=C(O)c1cn(C2CC2)c2cc(N3CCN(C(=O)CCSc4nnnn4-c4ccc(Br)cc4)CC3)c(F)cc2c1=O
- Ratio (Escherichia coli [3]): 2

Compound: COc1c(N2C[C@H]3CCCN(S(=O)(=O)c4ccc(F)cc4)[C@H]3C2)c(F)cc2c(=O)c(C(=O)O)cn(C3CC3)c12
- MIC (Staphylococcus aureus [4]): < 2.64 µg/mL
- MIC (Staphylococcus aureus [5]): < 2.64 µg/mL

Compound: COc1ccc(S(=O)(=O)N2CCC[C@@H]3CN(c4c(F)cc5c(=O)c(C(=O)O)cn(C6CC6)c5c4OC)C[C@@H]32)cc1
- MIC (Staphylococcus aureus [4]): < 2.64 µg/mL
- MIC (Staphylococcus aureus [5]): < 2.64 µg/mL

Compound: COc1c(N2C[C@H]3CCCN(S(=O)(=O)c4ccc(Cl)cc4)[C@H]3C2)c(F)cc2c(=O)c(C(=O)O)cn(C3CC3)c12
- MIC (Staphylococcus aureus [4]): < 2.64 µg/mL
- MIC (Staphylococcus aureus [5]): < 2.64 µg/mL

Compound: O=C(CSC(=S)N1CCN(c2cc3c(cc2F)c(=O)c(C(=O)O)cn3C2CC2)CC1)Nc1cccc(Cl)c1
- MIC (Staphylococcus aureus [6]): 0.024 µg/mL (≈ 0.0417 µM)
- MIC (Pseudomonas aeruginosa): 0.024 µg/mL (≈ 0.0417 µM)

Compound: COc1c(N2C[C@H]3CCCN(S(=O)(=O)c4ccccc4)[C@H]3C2)c(F)cc2c(=O)c(C(=O)O)cn(C3CC3)c12
- MIC (Staphylococcus aureus [4]): < 2.64 µg/mL
- MIC (Staphylococcus aureus [5]): < 2.64 µg/mL

Compound: CCn1cc(C(=O)O)c(=O)c2cnc(N3CCN(Cn4nc(-c5ccc(OC)cc5)n(-c5ccc(C(C)(C)C)cc5)c4=S)CC3)nc21
- MIC (Escherichia coli [7]): 0.98 µg/mL (≈ 1.5 µM)

Compound: CCn1cc(C(=O)O)c(=O)c2cc(F)c(N3CCN(Cn4nc(-c5ccccc5O)n(-c5ccc(OC)cc5)c4=S)CC3)cc21
- MIC (Klebsiella pneumoniae): ≤ 0.125 µg/mL
- MIC (Escherichia coli [8]): ≤ 0.125 µg/mL
- MIC (Staphylococcus aureus [9]): ≤ 0.125 µg/mL

Compound: CCn1cc(C(=O)O)c(=O)c2cc(F)c(N3CCN(Cn4nc(-c5ccco5)oc4=S)CC3)cc21
- MIC (Staphylococcus aureus [6]): ≤ 0.125 µg/mL
- MIC (Escherichia coli [10]): ≤ 0.125 µg/mL
- MIC (Pseudomonas aeruginosa): ≤ 0.125 µg/mL

Compound: CCn1cc(C(=O)O)c(=O)c2cc(F)c(N3CCN(Cn4nc(-c5ccncc5)n(-c5ccc(OC)cc5)c4=S)CC3)cc21
- MIC (Klebsiella pneumoniae): ≤ 0.125 µg/mL
- MIC (Escherichia coli [8]): ≤ 0.125 µg/mL
- MIC (Staphylococcus aureus [9]): ≤ 0.125 µg/mL

Compound: CCn1cc(C(=O)O)c(=O)c2cc(F)c(N3CCN(Cn4nc(Cn5nc(C)n(/N=C/c6ccccc6O)c5=O)n(-c5ccccc5)c4=O)CC3)cc21
- MIC (Escherichia coli [11]): < 0.24 µg/mL
- MIC (Klebsiella pneumoniae): < 0.24 µg/mL
- MIC (Staphylococcus aureus [12]): < 28 µg/mL

Compound: CCn1cc(C(=O)O)c(=O)c2cc(F)c(N3CCN(Cn4nc(-c5cnccn5)oc4=S)CC3)cc21
- MIC (Staphylococcus aureus [6]): ≤ 0.125 µg/mL
- MIC (Escherichia coli [10]): ≤ 0.125 µg/mL
- MIC (Pseudomonas aeruginosa): ≤ 0.125 µg/mL

Compound: CCCCCOc1ccc(C2C(Cl)C(=O)N2c2cc3[nH]cc(C(=O)O)c(=O)c3cc2F)cc1 (centres undefined)
- MIC (Staphylococcus aureus [6]): 0.02 µg/mL (≈ 0.0423 µM)
- MIC (Escherichia coli [10]): 0.02 µg/mL (≈ 0.0423 µM)
- MIC (Enterococcus faecalis): 0.02 µg/mL (≈ 0.0423 µM)
- MIC (Escherichia coli [13]): 0.02 µg/mL (≈ 0.0423 µM)

Compound: Cc1ccc(-c2ccnc(Nc3ccc4c(=O)c(C(=O)O)cn(C5CC5)c4c3)n2)cc1C
- MIC (Staphylococcus aureus [14]): 0.38 µg/mL (≈ 0.891 µM)

From ChEMBL document CHEMBL5360532, “Current scenario of quinolone hybrids with potential antibacterial activity against ESKAPE pathogens” (Eur J Med Chem, 2023)
